Paper PMC7338687, “Allosteric Coupling Between Drug Binding and the Aromatic Cassette in the Pore Domain of the hERG1 Channel: Implications for a State-Dependent Blockade” (Frontiers in Pharmacology, 2020)
Where two headings read alike, the source gives them in different places.

How the values were obtained:
guinea pig myocytes = test system: guinea pig myocytes; parameters: method as in Duff et al., 1995; settings: ref Duff et al., 1995, cited from earlier work
M651T hERG1 = test system: M651T hERG1; parameters: method as in Perissinotti et al., 2019; settings: ref Perissinotti et al., 2019; cited from earlier work
WT hERG1 = WT hERG1 (Homo sapiens, UniProt Q12809); experiment: cell-based; settings: HEK 293 cells
Description: (§1) The site-directed mutagenesis methods utilized in this work have been previously reported ([Lees-Miller et al., 2015]; [Wang et al., 2016]). The hERG1 constructs were transfected into mammalian HEK cells. Conventional overlap PCR with primers were synthesized by Sigma Genosys (Oakville, Ontario, Canada) and sequenced by using Eurofins MWG Operon (Huntsville, AL) to create the single- and double-point mutant constructs of hERG1. Following this, XbaI restriction endonuclease was used to linearize and the cRNA was transcribed in vitro using the mMessage mMachine T7 Ultra cRNA transcription kit (Ambion, Austin, TX).
(§2) All experiments were performed under room temperature (295 K). The extracellular solution contained (mM) NaCl 140, KCl 5.4, CaCl2 1, MgCl2 1, HEPES 5, glucose 5.5; the pH of the solution was adjusted and kept at 7.4 with NaOH solution. Micropipettes were pulled from borosilicate glass capillary tubes using a programmable horizontal puller (Sutter Instruments, Novato, CA). […] Tail currents were recorded when the voltage was returned to −100 mV from +50 mV. […] The changes of hERG1 currents during the intracellular dialysis of the drug were monitored each minute right after forming the whole cell configuration. […]

hERG1 = target: T1, hERG1 (Homo sapiens, UniProt Q12809); experiment: intracellular application of drug via the patch pipette, hERG1 current; type: cell-based; settings: 100 µM (15-fold greater than extracellular IC50)
T1 construct: expressed in transfected cells; host or cells: HEK 293
Protocol: All experiments were performed under room temperature (295 K). The extracellular solution contained (mM) NaCl 140, KCl 5.4, CaCl2 1, MgCl2 1, HEPES 5, glucose 5.5; the pH of the solution was adjusted and kept at 7.4 with NaOH solution. Micropipettes were pulled from borosilicate glass capillary tubes using a programmable horizontal puller (Sutter Instruments, Novato, CA). The “intracellular” pipette solution contained the following: 10 mM KCl, 110 mM K-aspartate, 5 mM MgCl2, 5 mM Na2ATP, 10 mM EGTA [ethylene glycol-bis(-aminoethyl ether)-N,N,N,N tetraacetic acid], 5 mM HEPES, and 1mM CaCl2. The internal solution was then adjusted to pH 7.2 with KOH solution. Transfected HEK cells were patched to record the hERG1 currents. Standard patch-clamp methods were used to measure the whole cell currents of hERG1 mutants expressed in HEK 293 cells using the AXOPATCH 200B amplifier (Axon Instruments). Tail currents were recorded when the voltage was returned to −100 mV from +50 mV. Ivabradine was dissolved in Tyrode solution immediately before the experiments and the solutions were used for the next 2 h during the experiments. […] The changes of hERG1 currents during the intracellular dialysis of the drug were monitored each minute right after forming the whole cell configuration.

F656C hERG1 = F656C hERG1 (Homo sapiens, UniProt Q12809, F656C); experiment: whole-cell patch-clamp of hERG1 tail currents, F656C mutant
Description: as §1, §2

F557L/F656C hERG1 = target: T2, F557L/F656C hERG1 (Homo sapiens, UniProt Q12809, F557L/F656C); experiment: whole-cell patch-clamp of hERG1 tail currents, double mutation F557L/F656C; type: cell-based
T2 construct: expressed in transfected cells; host or cells: HEK 293
Description: as §1, §2

T2 sequence (Q12809 whole entry F557L/F656C): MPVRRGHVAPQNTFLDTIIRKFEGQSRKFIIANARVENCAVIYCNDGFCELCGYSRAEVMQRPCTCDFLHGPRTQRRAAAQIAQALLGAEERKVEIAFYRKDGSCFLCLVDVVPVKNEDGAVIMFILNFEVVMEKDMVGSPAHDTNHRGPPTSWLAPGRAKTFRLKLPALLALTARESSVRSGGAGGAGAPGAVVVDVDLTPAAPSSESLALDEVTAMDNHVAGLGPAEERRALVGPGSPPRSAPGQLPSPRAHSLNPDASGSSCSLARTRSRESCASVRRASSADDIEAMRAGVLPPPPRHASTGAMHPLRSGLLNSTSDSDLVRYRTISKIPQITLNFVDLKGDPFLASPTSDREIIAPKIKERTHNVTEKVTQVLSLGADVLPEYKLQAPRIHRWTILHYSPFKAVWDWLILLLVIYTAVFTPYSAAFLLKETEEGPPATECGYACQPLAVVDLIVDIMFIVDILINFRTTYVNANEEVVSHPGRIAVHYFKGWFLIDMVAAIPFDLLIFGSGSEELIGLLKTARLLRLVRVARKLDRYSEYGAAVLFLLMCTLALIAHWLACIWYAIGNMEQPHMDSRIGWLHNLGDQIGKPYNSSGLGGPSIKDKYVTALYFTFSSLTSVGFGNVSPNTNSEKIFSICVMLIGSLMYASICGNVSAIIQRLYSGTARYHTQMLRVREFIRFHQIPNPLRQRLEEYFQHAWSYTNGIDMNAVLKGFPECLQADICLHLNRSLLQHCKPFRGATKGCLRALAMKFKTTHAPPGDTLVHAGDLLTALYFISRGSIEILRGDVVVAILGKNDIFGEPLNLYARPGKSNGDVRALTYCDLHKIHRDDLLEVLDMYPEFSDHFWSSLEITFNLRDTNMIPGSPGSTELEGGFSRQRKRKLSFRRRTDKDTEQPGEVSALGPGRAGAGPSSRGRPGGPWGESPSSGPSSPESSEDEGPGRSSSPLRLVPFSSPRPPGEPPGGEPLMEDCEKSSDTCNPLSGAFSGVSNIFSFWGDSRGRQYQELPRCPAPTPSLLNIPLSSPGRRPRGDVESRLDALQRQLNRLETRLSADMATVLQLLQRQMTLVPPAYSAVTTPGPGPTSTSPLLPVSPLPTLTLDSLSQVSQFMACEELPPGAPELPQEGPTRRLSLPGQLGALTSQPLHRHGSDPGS
WT hERG1, sequence (Q12809 whole entry): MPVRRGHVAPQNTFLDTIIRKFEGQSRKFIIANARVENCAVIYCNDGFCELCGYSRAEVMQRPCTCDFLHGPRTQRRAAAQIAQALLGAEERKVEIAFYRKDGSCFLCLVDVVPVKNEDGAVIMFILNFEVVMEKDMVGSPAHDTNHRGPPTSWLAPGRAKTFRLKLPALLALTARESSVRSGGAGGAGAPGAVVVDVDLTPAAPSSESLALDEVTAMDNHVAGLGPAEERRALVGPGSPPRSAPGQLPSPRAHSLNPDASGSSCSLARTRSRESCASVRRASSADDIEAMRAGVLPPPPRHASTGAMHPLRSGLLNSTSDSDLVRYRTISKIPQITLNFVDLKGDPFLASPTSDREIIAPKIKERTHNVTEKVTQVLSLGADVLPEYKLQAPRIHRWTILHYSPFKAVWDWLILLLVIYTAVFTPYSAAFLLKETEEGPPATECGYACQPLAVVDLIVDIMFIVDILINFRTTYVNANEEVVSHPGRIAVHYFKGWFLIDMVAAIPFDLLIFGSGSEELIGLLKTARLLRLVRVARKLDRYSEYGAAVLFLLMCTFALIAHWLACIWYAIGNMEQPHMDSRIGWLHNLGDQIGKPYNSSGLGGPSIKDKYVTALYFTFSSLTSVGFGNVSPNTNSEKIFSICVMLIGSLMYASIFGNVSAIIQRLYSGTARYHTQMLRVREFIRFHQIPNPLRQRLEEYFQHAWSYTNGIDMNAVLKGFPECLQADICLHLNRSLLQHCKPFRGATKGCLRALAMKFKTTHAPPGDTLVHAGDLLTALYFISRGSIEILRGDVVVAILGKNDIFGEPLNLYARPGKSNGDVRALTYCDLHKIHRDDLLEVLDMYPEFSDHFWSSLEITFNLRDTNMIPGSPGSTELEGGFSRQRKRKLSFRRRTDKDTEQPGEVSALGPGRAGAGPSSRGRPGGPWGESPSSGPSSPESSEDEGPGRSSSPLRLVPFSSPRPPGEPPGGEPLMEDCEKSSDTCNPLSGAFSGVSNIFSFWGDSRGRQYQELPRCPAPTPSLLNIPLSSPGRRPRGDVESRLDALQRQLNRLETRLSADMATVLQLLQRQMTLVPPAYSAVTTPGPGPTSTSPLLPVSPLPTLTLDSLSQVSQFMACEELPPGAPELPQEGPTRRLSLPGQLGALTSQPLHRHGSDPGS
T1 sequence (Q12809 whole entry): as above
F656C hERG1, sequence (Q12809 whole entry F656C): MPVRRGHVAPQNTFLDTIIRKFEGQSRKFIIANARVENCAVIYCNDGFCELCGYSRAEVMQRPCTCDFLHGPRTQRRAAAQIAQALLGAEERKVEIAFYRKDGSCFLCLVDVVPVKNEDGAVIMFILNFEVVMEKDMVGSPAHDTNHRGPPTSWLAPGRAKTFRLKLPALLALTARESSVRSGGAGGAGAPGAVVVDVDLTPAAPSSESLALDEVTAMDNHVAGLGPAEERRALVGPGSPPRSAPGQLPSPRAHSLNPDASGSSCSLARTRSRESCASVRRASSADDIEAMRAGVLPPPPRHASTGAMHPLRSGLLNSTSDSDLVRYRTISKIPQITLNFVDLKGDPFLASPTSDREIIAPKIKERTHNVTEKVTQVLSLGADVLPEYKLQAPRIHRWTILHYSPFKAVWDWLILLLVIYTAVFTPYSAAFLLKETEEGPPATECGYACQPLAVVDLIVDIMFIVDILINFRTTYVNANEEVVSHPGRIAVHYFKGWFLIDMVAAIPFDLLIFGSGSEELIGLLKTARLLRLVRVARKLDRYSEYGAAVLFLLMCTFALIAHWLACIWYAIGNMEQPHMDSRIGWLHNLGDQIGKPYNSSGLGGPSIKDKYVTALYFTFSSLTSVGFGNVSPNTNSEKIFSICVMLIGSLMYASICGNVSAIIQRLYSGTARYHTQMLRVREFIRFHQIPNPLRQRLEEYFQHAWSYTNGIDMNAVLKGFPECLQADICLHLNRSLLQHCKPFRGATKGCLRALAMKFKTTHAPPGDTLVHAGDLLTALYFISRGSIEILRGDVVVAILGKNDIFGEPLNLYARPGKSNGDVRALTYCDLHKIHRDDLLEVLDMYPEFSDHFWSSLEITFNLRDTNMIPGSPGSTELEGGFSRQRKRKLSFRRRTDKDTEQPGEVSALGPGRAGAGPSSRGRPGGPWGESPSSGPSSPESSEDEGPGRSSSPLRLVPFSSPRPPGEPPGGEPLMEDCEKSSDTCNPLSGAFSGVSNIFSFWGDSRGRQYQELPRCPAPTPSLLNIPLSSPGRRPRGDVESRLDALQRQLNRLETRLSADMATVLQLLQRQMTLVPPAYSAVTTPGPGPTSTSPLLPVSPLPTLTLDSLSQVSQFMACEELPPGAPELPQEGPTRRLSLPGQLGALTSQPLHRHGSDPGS

CN(CCOc1ccc(NS(C)(=O)=O)cc1)CCc1ccc(NS(C)(=O)=O)cc1 [dofetilide]
IC50 (guinea pig myocytes; read-out: high affinity for binding of dofetilide, high-affinity site): 100 nM | IC50 (guinea pig myocytes; read-out: low affinity for binding of dofetilide (low affinity IC50 value), low-affinity site): 1000 nM | sensitivity of block to the M651T mutation (M651T hERG1): insensitive

COc1cc2c(cc1OC)CC(=O)N(CCCN(C)C[C@H]1Cc3cc(OC)c(OC)cc31)CC2 [ivabradine]
IC50 (WT hERG1; IC50 for block (Hill fit), WT, Figure 7A): 6.8 µM | IC50 (WT hERG1; IC50 for block of hERG1, WT, applied extracellularly, tail currents, room temperature): 6.7 µM | block of hERG1 current when applied intracellularly (hERG1): little block | IC50 (F656C hERG1): 45 µM | block in raw current traces (F557L/F656C hERG1; F557L/F656C, 100 µM Ivabradine vs control): no block | blocking (F557L/F656C hERG1; double mutant F557L/F656C, suprapharmacologic concentrations (dofetilide 20 µM, ivabradine 100 µM)): ~ 15%
